These results are taken from US4772586A, “Novel derivatives of arginine vasopressin antagonists” (Medical College of Ohio, priority 1986, dated 1988).

Experiment [1] has as its system antidiuretic response to arginine vasopressin. Kind of experiment: Antagonism of the antidiuretic response to arginine vasopressin (Anti-ADH). The format is in vivo, rats. The settings on record: for Anti-ADH Potency pA2: estimated in vivo pA2; for Anti-ADH pA2: Table 1, estimated in vivo pA2 = negative log of effective dose divided by volume of distribution (67 ml/kg). The procedure: Activity as antidiuretic agonists was determined by intravenous injection of the compounds being evaluated in ethanol-anesthesized water-loaded rats in accordance with Sawyer, Endocrinology, vol. 63 (1958) at 694. Antagonism of the antidiuretic response to subsequent injections of arginine vasopressin was tested by the method of Sawyer et al., Science, vol. 212 (1981) at 49.
(§1) Antagonistic potencies were determined and expressed as "effective doses" and pA2 values. The "effective dose" is defined as the dose (in nanomoles per kilogram) that reduces the response seen from 2x units of agonist injected 20 min after the dose of antagonist to the response with 1x units of agonist. Estimated in vivo "pA2 " values represent the negative logarithms of the effective doses, divided by the estimated volume of distribution (67 ml/kg).

In experiment [2] the test system is vasopressor response to arginine vasopressin. Kind of experiment: Antagonism to the vasopressor response (Anti-VP). The format is in vivo. The following applies: estimated in vivo pA2; for Anti-VP pA2: Table 1. The procedure: Antagonism to the vasopressor response was estimated in accordance with Dyckes et al., J. Med. Chem., vol. 17 (1974) at 969. The values are expressed as pA2 values, defined as in Schild et al., Br. J. Pharmacol., vol. 2 (1947) at 189.
as §1

*1 amine or outer side, *2 acyl side, *3 side chain or, on linkers, in order; H or OH if unused. Where a SMILES comes first, the peptide text is derived from it. Bridges are numbered along the chain shown (N, C = ends). [ ]: non-standard residue; d: D form. The star is where a group is joined. Ethylenediamine = C(CN[*:2])N[*:1]; X1 = O=C(CC1(S[*:2])CCCCC1)[*:1]; NH(CH2)4NH2 = NCCCCN*; NHCH2CH2OH = OCCN*; NHBu = CCCCN*

`CCCCNC(=O)[C@H](CCCNC(=N)N)NC(=O)[C@@H]1CCCN1C(=O)[C@@H]1CSSC2(CCCCC2)CC(=O)N[C@H](Cc2ccc(OCC)cc2)C(=O)N[C@@H](Cc2ccccc2)C(=O)N[C@@H]([C@@H](C)CC)C(=O)N[C@@H](CC(N)=O)C(=O)N1` [[1-beta-mercapto-beta,beta-cyclopentamethylenepropionic acid), 2-(D-O-ethyl)tyrosine, 4-isoleucine, 8-arginine-N-(n-butyl)amide, 9-desglycinamide] vasopressin] ([dY](Et)FINCPR-NHBu; linker N-5 via X1): the “Anti-ADH Potency pA2” value in experiment [1] (Table 4) is given as 7.62 ± 0.09. In addition, the “Anti-VP Potency pA2” value in experiment [2] (Table 4, ^+ = mixed) is reported as 7.51 ± 0.08.

In the case of `CC[C@H](C)[C@@H]1NC(=O)[C@H](Cc2ccccc2)NC(=O)[C@@H](Cc2ccccc2)NC(=O)CC2(CCCCC2)SSC[C@@H](C(=O)N2CCC[C@H]2C(=O)N[C@@H](CCCNC(=N)N)C(=O)N[C@H](C)C(N)=O)NC(=O)[C@H](CC(N)=O)NC1=O` [D-Ala(NH2), [1-(beta-mercapto-beta,beta-cyclopentamethylenepropionic acid), 2-D-phenylalanine, 4-isoleucine, 9-D-alaninamide]-arginine vasopressin] ([dF]FINCPR[dA]-NH2; linker N-5 via X1), the “Anti-ADH Potency pA2” value in experiment [1] (Table 2) is 7.38 ± 0.08. The “Anti-VP Potency pA2” value in experiment [2] (Table 2) is reported as 7.55 ± 0.05.

Consider `CCOc1ccc(C[C@H]2NC(=O)CC3(CCCCC3)SSC[C@@H](C(=O)N3CCC[C@H]3C(=O)N[C@@H](CCCNC(=N)N)C(=O)NCCN)NC(=O)[C@H](CC(N)=O)NC(=O)[C@H]([C@@H](C)CC)NC(=O)[C@H](Cc3ccccc3)NC2=O)cc1` [[1-(beta-mercapto-beta,beta-cyclopentamethylenepropionic acid), 2-D-(O-ethyl)tyrosine, 4-isoleucine, 8-arginine-N-(beta-amino)ethylamide, 9-desglycinamide] vasopressin] ([dY](Et)FINCPR-Ethylenediamine; linker N-5 via X1), for which the “Anti-ADH Potency pA2” value in experiment [1] (Table 4) is on record as 8.00 ± 0.12. For the same compound, the “Anti-VP Potency pA2” value in experiment [2] (Table 4, ^+ = mixed) is 8.33 ± 0.06.

Regarding `CC[C@H](C)[C@@H]1NC(=O)[C@H](Cc2ccccc2)NC(=O)[C@@H](Cc2ccccc2)NC(=O)CC2(CCCCC2)SSC[C@@H](C(=O)N2CCC[C@H]2C(=O)N[C@@H](CCCNC(=N)N)C(=O)NCC(=O)NCCO)NC(=O)[C@H](CC(N)=O)NC1=O` [[1-(beta-mercapto-beta,beta-cyclopentamethylenepropionic acid), 2-D-phenylalanine, 4-isoleucine, 9-glycine-N-(beta-hydroxy)ethylamide]-arginine vasopressin] ([dF]FINCPRG-NHCH2CH2OH; linker N-5 via X1), the “Anti-ADH Potency pA2” value in experiment [1] (Table 4) is listed as 8.20 ± 0.12. The “Anti-VP Potency pA2” value in experiment [2] (Table 4, ^+ = mixed) was 6.92 ± 0.07.

Turning to `CC[C@H](C)[C@@H]1NC(=O)[C@H](Cc2ccccc2)NC(=O)[C@@H](Cc2ccccc2)NC(=O)CC2(CCCCC2)SSC[C@@H](C(=O)N2CCC[C@H]2C(=O)N[C@@H](CCCNC(=N)N)C(=O)NCCCCN)NC(=O)[C@H](CC(N)=O)NC1=O` [[1-(beta-mercapto-beta,beta-cyclopentamethylenepropionic acid), 2-D-phenylalanine, 4-isoleucine, 8-arginine-N-(delta-amino)butylamide, 9-desglycinamide] vasopressin] ([dF]FINCPR-{NH(CH2)4NH2}; linker N-5 via X1), the “Anti-ADH Potency pA2” value in experiment [1] (Table 4) is on record as 8.11 ± 0.03. In addition, the “Anti-VP Potency pA2” value in experiment [2] (Table 4, ^+ = mixed) is recorded as 7.61 ± 0.08.

`CC(C)[C@@H]1NC(=O)[C@H](Cc2ccccc2)NC(=O)[C@@H](Cc2ccccc2)NC(=O)CC2(CCCCC2)SSC[C@@H](C(=O)N2CCC[C@H]2C(=O)N[C@@H](CCCNC(=N)N)C(N)=O)NC(=O)[C@H](CC(N)=O)NC1=O` [desGly^9 d(CH2)5 [D-Phe^2]VAVP, [1-(beta-mercapto-beta,beta-cyclopentamethylenepropionic acid), 2-D-phenylalanine, 4-valine, 9-desglycine]-arginine vasopressin] ([dF]FVNCPR-NH2; linker N-5 via X1): the “Anti-ADH pA2” value in experiment [1] is listed as 8.09 ± 0.08. Moreover, in experiment [2], the “Anti-VP pA2” value is on record as 8.15 ± 0.03.

For the compound `CC[C@H](C)[C@H](NC(=O)[C@H](CCCNC(=N)N)NC(=O)[C@@H]1CCCN1C(=O)[C@@H]1CSSC2(CCCCC2)CC(=O)N[C@H](Cc2ccccc2)C(=O)N[C@@H](Cc2ccccc2)C(=O)N[C@@H]([C@@H](C)CC)C(=O)N[C@@H](CC(N)=O)C(=O)N1)C(N)=O` [Ile(NH2), [1-(beta-mercapto-beta,beta-cyclopentamethylenepropionic acid), 2-D-phenylalanine, 4-isoleucine, 9-isoleucinamide]-arginine vasopressin] ([dF]FINCPRI-NH2; linker N-5 via X1), the “Anti-ADH Potency pA2” value in experiment [1] (Table 2) is listed as 7.58 ± 0.11. Moreover, in experiment [2] (Table 2), the “Anti-VP Potency pA2” value was 7.04 ± 0.05.

Take `CC[C@H](C)[C@@H]1NC(=O)[C@H](Cc2ccccc2)NC(=O)[C@@H](Cc2ccccc2)NC(=O)CC2(CCCCC2)SSC[C@@H](C(=O)N2CCC[C@H]2C(=O)N[C@@H](CCCNC(=N)N)C(=O)O)NC(=O)[C@H](CC(N)=O)NC1=O` [[1-(beta-mercapto-beta,beta-cyclopentamethylenepropionic acid), 2-D-phenylalanine, 4-isoleucine, 9-desglycinamide]-arginine vasopressin] ([dF]FINCPR-OH; linker N-5 via X1): the “Anti-ADH pA2” value in experiment [1] is reported as 7.20 ± 0.10. Also, in experiment [1] (Table 4), the “Anti-ADH Potency pA2” value is reported as 8.05 ± 0.09. Besides, the “Anti-VP pA2” value in experiment [2] was 6.74 ± 0.08. The “Anti-VP Potency pA2” value in experiment [2] (Table 4, ^+ = mixed) is listed as 7.84 ± 0.03.

`CC[C@H](C)[C@@H]1NC(=O)[C@H](Cc2ccccc2)NC(=O)[C@@H](Cc2ccccc2)NC(=O)CC2(CCCCC2)SSC[C@@H](C(=O)N2CCC[C@H]2C(=O)N[C@@H](CCCNC(=N)N)C(N)=O)NC(=O)[C@H](CC(N)=O)NC1=O` [desGly^9 d(CH2)5 [D-Phe^2,Ile^ 4]AVP, [1-(beta-mercapto-beta,beta-cyclopentamethylenepropionic acid), 2-D-phenylalanine, 4-isoleucine, 9-desglycine]-arginine vasopressin] ([dF]FINCPR-NH2; linker N-5 via X1): the “Anti-ADH pA2” value in experiment [1] was 8.05 ± 0.09. The “Anti-VP pA2” value in experiment [2] was 7.84 ± 0.03.

`CC(C)[C@@H]1NC(=O)[C@H](Cc2ccccc2)NC(=O)[C@@H](Cc2ccccc2)NC(=O)CC2(CCCCC2)SSC[C@@H](C(=O)N2CCC[C@H]2C(=O)N[C@@H](CCCNC(=N)N)C(=O)O)NC(=O)[C@H](CC(N)=O)NC1=O` [desGly(NH2)^9 d(CH2)5 [D-Phe^2]VAVP, [1-(beta-mercapto-beta,beta-cyclopentamethylenepropionic acid), 2-D-phenylalanine, 4-valine, 9-desglycinamide]-arginine vasopressin] ([dF]FVNCPR-OH; linker N-5 via X1): the “Anti-ADH pA2” value in experiment [1] is given as 7.75 ± 0.11. For the same compound, the “Anti-VP pA2” value in experiment [2] is listed as 7.93 ± 0.05.

With `CC[C@H](C)[C@@H]1NC(=O)[C@H](Cc2ccccc2)NC(=O)[C@@H](Cc2ccccc2)NC(=O)CC2(CCCCC2)SSC[C@@H](C(=O)N2CCC[C@H]2C(=O)N[C@@H](CCCNC(=N)N)C(=O)N[C@@H](CCCNC(=N)N)C(N)=O)NC(=O)[C@H](CC(N)=O)NC1=O` [Arg(NH2), [1-(beta-mercapto-beta,beta-cyclopentamethylenepropionic acid), 2-D-phenylalanine, 4-isoleucine, 9-argininamide]-arginine vasopressin] ([dF]FINCPRR-NH2; linker N-5 via X1), the “Anti-ADH Potency pA2” value in experiment [1] (Table 2) is given as 8.05 ± 0.11. Moreover, in experiment [2] (Table 2), the “Anti-VP Potency pA2” value is recorded as 8.11 ± 0.07.

As to `CCOc1ccc(C[C@H]2NC(=O)CC3(CCCCC3)SSC[C@@H](C(=O)N3CCC[C@H]3C(=O)N[C@@H](CCCNC(=N)N)C(=O)NCCCCN)NC(=O)[C@H](CC(N)=O)NC(=O)[C@H]([C@@H](C)CC)NC(=O)[C@H](Cc3ccccc3)NC2=O)cc1` [[1-(beta-mercapto-beta,beta-cyclopentamethylenepropionic acid), 2-D-(O-ethyl)tyrosine, 4-isoleucine, 8-arginine-N-(delta-amino)butylamide,9-desglycinamide] vasopressin] ([dY](Et)FINCPR-{NH(CH2)4NH2}; linker N-5 via X1), the “Anti-ADH Potency pA2” value in experiment [1] (Table 4) is 7.68 ± 0.05. For the same compound, the “Anti-VP Potency pA2” value in experiment [2] (Table 4, ^+ = mixed) was 7.78 ± 0.4.

As to `CC[C@H](C)[C@@H]1NC(=O)[C@H](Cc2ccccc2)NC(=O)[C@@H](Cc2ccccc2)NC(=O)CC2(CCCCC2)SSC[C@@H](C(=O)N2CCC[C@H]2C(=O)N[C@@H](CCCNC(=N)N)C(=O)N[C@@H](C)C(N)=O)NC(=O)[C@H](CC(N)=O)NC1=O` [Ala(NH2), [1-(beta-mercapto-beta,beta-cyclopentamethylenepropionic acid), 2-D-phenylalanine, 4-isoleucine, 9-alaninamide]-arginine vasopressin] ([dF]FINCPRA-NH2; linker N-5 via X1), the “Anti-ADH Potency pA2” value in experiment [1] (Table 2) is 8.38 ± 0.13. Moreover, the “Anti-VP Potency pA2” value in experiment [2] (Table 2) is 7.67 ± 0.04.

As for `CC[C@H](C)[C@@H]1NC(=O)[C@H](Cc2ccccc2)NC(=O)[C@@H](Cc2ccccc2)NC(=O)CC2(CCCCC2)SSC[C@@H](C(=O)N2CCC[C@H]2C(=O)N[C@@H](CCCNC(=N)N)C(=O)N[C@H](C(N)=O)C(C)C)NC(=O)[C@H](CC(N)=O)NC1=O` [Val(NH2), [1-(beta-mercapto-beta,beta-cyclopentamethylenepropionic acid), 2-D-phenylalanine, 4-isoleucine, 9-valinamide]-arginine vasopressin] ([dF]FINCPRV-NH2; linker N-5 via X1), the “Anti-ADH Potency pA2” value in experiment [1] (Table 2) was 8.11 ± 0.11. For the same compound, the “Anti-VP Potency pA2” value in experiment [2] (Table 2) is 7.66 ± 0.10.
